Measurements reported in ChEMBL document CHEMBL3414484, “Novel imidazole derivatives as heme oxygenase-1 (HO-1) and heme oxygenase-2 (HO-2) inhibitors and their cytotoxic activity in human-derived cancer cell lines” (Eur J Med Chem, 2015).
Each block holds one compound with its values, some of them ahead of it.

Assays:
Heme oxygenase 2 = molecular target: T1, Heme oxygenase 2 (Rattus norvegicus, UniProt P23711); assay: Inhibition of HO2 in Sprague-Dawley rat brain microsomal fraction assessed as reduction in bilirubin formation incubated for 60 mins by double beam spectrophotometry
T1 sequence (P23711 whole entry): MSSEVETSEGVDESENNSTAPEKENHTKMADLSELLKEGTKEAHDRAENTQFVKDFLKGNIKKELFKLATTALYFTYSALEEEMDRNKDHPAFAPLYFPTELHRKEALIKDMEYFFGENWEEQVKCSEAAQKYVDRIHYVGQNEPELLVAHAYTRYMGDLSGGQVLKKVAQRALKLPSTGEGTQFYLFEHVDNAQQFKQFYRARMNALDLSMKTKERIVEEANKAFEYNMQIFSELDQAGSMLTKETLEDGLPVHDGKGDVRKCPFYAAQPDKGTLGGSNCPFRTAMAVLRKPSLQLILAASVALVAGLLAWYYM

MDA-MB-231 = assay: Cytotoxicity against human MDA-MB-231 cells incubated for 72 hrs by sulforhodamine B assay; format: functional, cell-based; conditions: MDA-MB-231, 72 h
MCF7 = assay: Cytotoxicity against human MCF7 cells incubated for 72 hrs by sulforhodamine B assay; format: functional, cell-based; conditions: MCF7, 72 h
DU-145 [1] = assay: Cytotoxicity against human DU145 cells incubated for 72 hrs by sulforhodamine B assay; format: functional, cell-based; conditions: DU-145, 72 h
[2] = Cytotoxicity against human PC3 cells incubated for 72 hrs by sulforhodamine B assay; format: functional, cell-based; conditions: PC-3, 72 h
LNCaP [3] = assay: Cytotoxicity against human LNCAP cells incubated for 72 hrs by sulforhodamine B assay; format: functional, cell-based
MDCK [4] = assay: Cytotoxicity against MDCK cells incubated for 72 hrs by sulforhodamine B assay; format: cell-based; conditions: Canis lupus familiaris
MDCK [5] = assay: Selectivity index, ratio of IC50 for MDCK cells to IC50 human MDA-MB-231 cells
MDCK [6] = assay: Selectivity index, ratio of IC50 for MDCK cells to IC50 human MCF7 cells
DU-145 [7] = assay: Selectivity index, ratio of IC50 for MDCK cells to IC50 human DU145 cells
MDCK [8] = assay: Selectivity index, ratio of IC50 for MDCK cells to IC50 human PC3 cells
LNCaP [9] = assay: Selectivity index, ratio of IC50 for MDCK cells to IC50 human LNCAP cells
Heme oxygenase 1 = molecular target: T2, Heme oxygenase 1 (Rattus norvegicus, UniProt P06762); assay: Inhibition of HO1 in Sprague-Dawley rat spleen microsomal fraction assessed as reduction in bilirubin formation incubated for 60 mins by double beam spectrophotometry; format: microsomes
T2 sequence (P06762 whole entry): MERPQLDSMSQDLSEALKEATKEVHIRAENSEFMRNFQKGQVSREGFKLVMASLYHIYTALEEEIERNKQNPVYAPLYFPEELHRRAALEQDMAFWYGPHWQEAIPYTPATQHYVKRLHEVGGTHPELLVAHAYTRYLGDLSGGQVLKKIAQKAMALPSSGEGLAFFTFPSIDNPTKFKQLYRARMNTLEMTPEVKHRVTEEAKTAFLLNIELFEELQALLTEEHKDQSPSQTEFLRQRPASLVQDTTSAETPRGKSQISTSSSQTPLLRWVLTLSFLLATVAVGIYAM

IC50 (Heme oxygenase 2): 11.2 µM
SMILES: Brc1cccc(OCCCCn2cncn2)c1

IC50 (Heme oxygenase 2): 44.7 µM
SMILES: O=[N+]([O-])c1ccc(OCCCn2cncn2)cc1

IC50 (Heme oxygenase 2): > 100 µM
SMILES: c1ccc(OCCCn2cncn2)cc1

IC50 (Heme oxygenase 2): 77.6 µM
SMILES: O=[N+]([O-])c1ccc(OCCCn2ccnc2)cc1

IC50 (Heme oxygenase 2): 41.7 µM
SMILES: O=[N+]([O-])c1ccc(OCCCCn2cncn2)cc1

IC50 (Heme oxygenase 2): 33.9 µM
SMILES: Brc1cccc(OCCCn2cncn2)c1

IC50 (Heme oxygenase 2): 36.3 µM
SMILES: Ic1ccc(OCCCn2ccnc2)cc1

SMILES: Ic1ccc(OCCCCn2ccnc2)cc1
IC50 (MDA-MB-231): 55.1 µM
IC50 (MCF7): 27.7 µM
IC50 (DU-145 [1]): 54.9 µM
IC50 [2]: 82.5 µM
IC50 (LNCaP [3]): 16.9 µM
IC50 (MDCK [4]): 103 µM
Ratio IC50 (MDCK [5]): 2
Ratio IC50 (MDCK [6]): 2
Ratio IC50 (DU-145 [7]): 2
Ratio IC50 (MDCK [8]): 2
Ratio IC50 (LNCaP [9]): 2

IC50 (Heme oxygenase 1): 42.6 µM
IC50 (Heme oxygenase 2): 0.9 µM
SMILES: Brc1cccc(OCCCCCn2ccnc2)c1

IC50 (Heme oxygenase 1): 34 µM
IC50 (Heme oxygenase 2): 41 µM
SMILES: Brc1cccc(OCCCCCCn2ccnc2)c1

IC50 (Heme oxygenase 1): 44 µM
IC50 (Heme oxygenase 2): 0.9 µM
SMILES: Ic1ccc(OCCCCCn2ccnc2)cc1
IC50 (MDA-MB-231): 27.4 µM
IC50 (MCF7): 11 µM
IC50 (DU-145 [1]): 27.7 µM
IC50 [2]: 27.6 µM
IC50 (LNCaP [3]): 27.8 µM
IC50 (MDCK [4]): 55.1 µM
Ratio IC50 (MDCK [5]): 2
Ratio IC50 (MDCK [6]): 2
Ratio IC50 (DU-145 [7]): 2
Ratio IC50 (MDCK [8]): 2
Ratio IC50 (LNCaP [9]): 2

IC50 (Heme oxygenase 1): 42 µM
IC50 (Heme oxygenase 2): > 100 µM
SMILES: Ic1ccc(OCCCCCCn2ccnc2)cc1

IC50 (Heme oxygenase 1): 16.9 µM
IC50 (Heme oxygenase 2): 49 µM
SMILES: c1ccc2oc(SCCCn3ccnc3)nc2c1

IC50 (Heme oxygenase 1): 30.9 µM
IC50 (Heme oxygenase 2): 74.1 µM
SMILES: c1ccc2oc(SCCCCn3ccnc3)nc2c1

IC50 (Heme oxygenase 1): 0.9 µM
IC50 (Heme oxygenase 2): 12.5 µM
SMILES: c1ccc2sc(SCCCn3ccnc3)nc2c1
IC50 (MDA-MB-231): 55.1 µM
IC50 (MCF7): 27.5 µM
IC50 (DU-145 [1]): 54.8 µM
IC50 [2]: 82.6 µM
IC50 (LNCaP [3]): 55 µM
IC50 (MDCK [4]): 82.4 µM
Ratio IC50 (MDCK [5]): 2
Ratio IC50 (MDCK [6]): 2
Ratio IC50 (DU-145 [7]): 2
Ratio IC50 (MDCK [8]): 2
Ratio IC50 (LNCaP [9]): 2

IC50 (Heme oxygenase 1): 1 µM
IC50 (Heme oxygenase 2): 0.8 µM
SMILES: c1ccc2sc(SCCCCn3ccnc3)nc2c1
IC50 (MDA-MB-231): 55.1 µM
IC50 (MCF7): 27.5 µM
IC50 (DU-145 [1]): 82.2 µM
IC50 [2]: 82.5 µM
IC50 (LNCaP [3]): 54.7 µM
IC50 (MDCK [4]): 58.5 µM
Ratio IC50 (MDCK [5]): 2
Ratio IC50 (MDCK [6]): 2
Ratio IC50 (DU-145 [7]): 2
Ratio IC50 (MDCK [8]): 2
Ratio IC50 (LNCaP [9]): 2

IC50 (Heme oxygenase 1): 39.8 µM
IC50 (Heme oxygenase 2): 11.2 µM
SMILES: c1ccc2sc(SCCCCCn3ccnc3)nc2c1

IC50 (Heme oxygenase 1): 18.4 µM
IC50 (Heme oxygenase 2): 0.9 µM
SMILES: Clc1ccc2sc(SCCCn3ccnc3)nc2c1

IC50 (Heme oxygenase 1): > 100 µM
IC50 (Heme oxygenase 2): 0.9 µM
SMILES: Clc1ccc2sc(SCCCCn3ccnc3)nc2c1

IC50 (Heme oxygenase 1): 36.3 µM
IC50 (Heme oxygenase 2): 0.9 µM
SMILES: Clc1ccc2sc(SCCCCCn3ccnc3)nc2c1

IC50 (Heme oxygenase 1): 17.7 µM
IC50 (Heme oxygenase 2): 35.5 µM
SMILES: O=c1oc2ccccc2n1CCCCn1ccnc1

IC50 (Heme oxygenase 1): 16.6 µM
IC50 (Heme oxygenase 2): 28.8 µM
SMILES: O=c1sc2ccccc2n1CCCn1ccnc1

IC50 (Heme oxygenase 1): 20 µM
IC50 (Heme oxygenase 2): 0.8 µM
SMILES: Brc1cccc(OCCCCCn2cncn2)c1

SMILES: Brc1cccc(OCCCCn2ccnc2)c1
IC50 (MDA-MB-231): 27.5 µM
IC50 (MCF7): 27.6 µM
IC50 (DU-145 [1]): 46.6 µM
IC50 [2]: 54.9 µM
IC50 (LNCaP [3]): 27.6 µM
IC50 (MDCK [4]): 82.4 µM
Ratio IC50 (MDCK [5]): 2
Ratio IC50 (MDCK [6]): 2
Ratio IC50 (DU-145 [7]): 2
Ratio IC50 (MDCK [8]): 2
Ratio IC50 (LNCaP [9]): 2
